In patent publication US6933308B2 (Bristol-Myers Squibb Company, priority 2002, dated 2005):

What was measured:
mKCNQ2 channels = biological target: T1, mKCNQ2 channels (Mus musculus, UniProt Q9Z351); assay: KCNQ whole-cell patch-clamp; type: cell-based; conditions: for EC50: HEK 293 stable cell line expressing mKCNQ2, steady-state current at end of 600 ms step from holding potential -80 mV; for verified in a patch-clamp assay measuring the effect of compounds on the current of KCNQ channels: HEK 293 cells expressing mKCNQ2
T1 construct: expressed in transfected cells
Protocol: Examples 8 and 11 were verified in a patch-clamp assay measuring the effect of compounds on the current of KCNQ channels.
KCNQ Patch-clamp. Whole-cell patch-clamp recordings were made from an HEK 293 stable cell line expressing mKCNQ2 channels, maintained in culture for 1-2 days. Patch pipettes had initial resistances of 2.5-4 MΩ. Currents were recorded with an EPC-9 amplifier (HEKA, Lambrecht, Germany) controlled with software (Pulse, HEKA) run on a standard lab PC. Series resistance compensation was used during current recording, and set at 80%. The series resistance (R) and cell capacitance (C) were determined electronically by subtracting the capacitive currents at the onset and offset of a 5 mV voltage step. The cancellation of whole-cell capacitive transients was virtually complete in all cells. Analog current signals were low-pass filtered at 2.9 kHz using a four-pole Bessel filter −3 dB) and stored on a local network server computer at a sampling rate of 1.5 kHz. All recordings were performed at room temperature (20-22° C.). The pipette solution contained (mM):KCl, 150; CaCl2, 2.5; EGTA, 5; MgCl2, 1; HEPES, 10; pH to 7.3 with KOH, and Osmolality of 290-300 mOsm. The extracellular solution contained (mM): NaCl, 140; KCl, 2.5; CaCl2, 2.5; MgCl2, 1; glucose, 10; HEPES, 10; pH to 7.3 with NaOH, and Osmolality of […].
Concentration response data were generated by measuring the difference in the steady-state amplitude of current in the presence of compound at the end of a 600 ms voltage-clamp step from a holding potential of −80 mV. The concentration-response data were fitted with Hill-type equations: I=Imax/(1+EC50/[A]^nH), where I is the steady-state current at a given concentration of agonist [A]; and Imax, EC50 and nH are parameters estimated from the curve fit. In some cases the concentration-response data were fitted with equations consisting of the sum of two Hill-type components. Current-voltage (I/V) relationships for agonist-evoked currents were obtained by performing 600 ms voltage steps (−110 mV to +40 mV) in the absence and presence of agonist.

KCNQ channels = assay: Thallium flux assay for KCNQ channel openers; type: cell-based; conditions: HEK-293 cells stably transfected with a KCNQ family member; for Min conc. response: minimal active concentration: lowest concentration giving signal >= 4 SD of negative controls; for EC50: thallium flux, 10 point concentration series
Protocol: Thallium Flux Assay for KCNQ Channel Openers.
The thallium assay is a modification of that published by Weaver and is referenced in its entirety (Weaver, C. D. WO 02/31508, 2002).
Approximately 20,000 cells/well of an HEK-293 cell line stably transfected with one of the members of the KCNQ family were plated into clear-bottom, black-walled, poly-D-lysine coated, 384 well assay plates in 20 μl/well of low chloride plating medium. Low chloride plating medium was composed of the following: sodium gluconate, 109 mM; potassium gluconate, 5.4 mM; hemi-calcium gluconate, 3.6 mM; magnesium sulfate, 0.8 mM; sodium bicarbonate, 26.2 mM; sodium phosphate monobasic, 1.2 mM; glutamine, 2 mM; glucose, 5 mM; 4-(2-hydroxyethyl)-1-piperazineethanesulfonic acid (HEPES) (pH 7.3) 10 mM, MEM vitamin solution (10× concentration of vitamins, Gibco/LifeTechnologies 11120-052) and MEM amino acid solution (1× concentration of amino acids, Gibco/LifeTechnologies 11130-051).
Following overnight incubation in a 5% CO2 incubator at 37° C., the cells in the plates were loaded with 20 μl/well of a dye loading solution containing the commercially available thallium-sensitive fluorescent dye BTC-AM, the acetomethoxy ester of BTC (see U.S. Pat. No. 5,501,980) (2 μM) and pluronic acid F-127 (Molecular Probes P 6867) (0.02% w/v) in chloride free assay buffer. Chloride free assay buffer was composed of the following: sodium gluconate, 140 mM; potassium gluconate, 2.5 mM; hemi-calcium gluconate, 6 mM; hemi-magnesium gluconate, 2 mM; glucose, 5 mM; HEPES (pH 7.3), 10 mM.
Following incubation in the dye loading solution for from 45-90 min at room temperature, the dye loading solution was removed by aspiration and replaced with 40 μl/well of chloride free assay buffer.
Prior to addition to cell plates, test compound and standard compounds were dissolved in DMSO to 3 mM concentration. Compounds were then diluted from the 3 mM stock to 100-fold over the final assay concentration in DMSO. Finally, compounds in DMSO were diluted from 100-fold over the final assay concentration to 5-fold over the final assay concentration in chloride free assay buffer.
Ten μl/well of compounds at 5-fold over the final assay concentration were then added to the cell plates. This represents a 1:5 dilution, yielding the final test concentration. The wells used for test compounds were A1-P20. Wells A21-P22 contained a standard opener and a maximally efficacious concentration (positive control). Wells A23-P24 contained chloride free assay buffer containing 1% DMSO (negative control).
Following addition of test compounds, the plates were loaded onto the Molecular Devices FLIPR. The 488 nm line of the argon laser was used to excite the BTC and the emission filter was a 540(+/−30) nm. Images were collected at 1 Hz. Ten seconds of baseline were collected and then the FLIPR was used to add 13 μl/well of a stimulus buffer composed of 7.5 mM Tl2SO4 in chloride free assay buffer. Images were collected for an additional 60 seconds.
For data analysis, the amplitude of the average of the negative controls was subtracted from all wells. The amplitudes of the test compounds were then compared to the value of four standard deviations of the negative control wells. The lowest concentration of a test compound sufficient to generate a signal amplitude greater than or equal to four standard deviations from the amplitude of the negative controls was defined as the minimal active concentration.
For generating EC50 values, compounds were serially diluted in 1:3 volume increments to produce a 10 point concentration series. EC50 values were calculated by fitting the resulting amplitudes to a single-site logistic equation. EC50 was defined as the concentration of test compound required to yield 50% of the maximal response. Maximal response (Maximal opening) was the largest signal amplitude divided by the negative control amplitude generated by any concentration of a test compound. […]

| Compound | EC50 (mKCNQ2 channels) [nM] | Min conc. response (KCNQ channels) [µM] | EC50 (KCNQ channels) [nM] | verified in a patch-clamp assay measuring the effect of compounds on the current of KCNQ channels (mKCNQ2 channels) |
| --- | --- | --- | --- | --- |
| CCN(CC)CCc1nc(C(F)(F)F)c(C(=O)NC(C)c2cccc(OC(F)(F)F)c2)s1 (stereo not drawn) [Example 15] | 3560 | 0.3 | 50 to 1000 | – |
| C[C@H](NC(=O)c1sc(CCN(C)Cc2ccco2)nc1C(F)(F)F)c1cccc(N2CCOCC2)c1 [Example 11, 2-[2-[(2-furanylmethyl)methylamino]ethyl]-N-[1-[3-(4-morpholinyl)phenyl]ethyl]-4-(trifluoromethyl)-5-thiazolecarboxamide] | – | 30 | 1000 to 20000 | verified |
| CC(NC(=O)c1sc(CCN2CCOCC2)nc1C(F)(F)F)c1cccc(-c2cccnc2)c1 (stereo not drawn) [Example 8] | – | 10 | 1000 to 20000 | verified |
| CC(NC(=O)c1sc(CCN2CCSCC2)nc1C(F)(F)F)c1cccc(C(F)(F)F)c1 (stereo not drawn) [Example 18, 2-[2-(4-thiomorpholinyl)ethyl]-4-(trifluoromethyl)-N-[1-[3-(trifluoromethyl)phenyl]ethyl]-5-thiazolecarboxamide] | 1230 | 3 | 50 to 1000 | – |
| CCN(CC)CCc1nc(C(F)(F)F)c(C(=O)N[C@@H](C)c2cccc(-c3cccnc3)c2)s1 [Example 31] | – | 0.3 | 1000 to 20000 | – |
| CC(NC(=O)c1sc(CCN(C)CCN(C)C)nc1C(F)(F)F)c1cccc(OC(F)(F)F)c1 (stereo not drawn) [Example 19] | – | 3 | 1000 to 20000 | – |
| COCCN(CCOC)CCc1nc(C(F)(F)F)c(C(=O)NC(C)c2cccc(C(F)(F)F)c2)s1 (stereo not drawn) [Example 39] | – | 3 | 1000 to 20000 | – |
